As usually defined, the melting point is the temperature of the solid-liquid transition. Usually Kd stands for a measure of binding affinity in units of concentration.

Seven compounds from patent US9045415B2, “Targeting of EWS-FLI1 as anti-tumor therapy” (Georgetown University, priority 2006, dated 2015) can be followed below.

Where two headings read alike, the source gives them in different places. No end group written: not given here. *: point of attachment. FITC = O=C1OC2(c3ccc(O)cc3Oc3cc(O)ccc32)c2ccc(NC(=S)*)cc21

The target in one data set is T1, recombinant EWS-FLI1 (Homo sapiens, UniProt Q01543+Q01844).
T1 sequence (Q01543 1-452): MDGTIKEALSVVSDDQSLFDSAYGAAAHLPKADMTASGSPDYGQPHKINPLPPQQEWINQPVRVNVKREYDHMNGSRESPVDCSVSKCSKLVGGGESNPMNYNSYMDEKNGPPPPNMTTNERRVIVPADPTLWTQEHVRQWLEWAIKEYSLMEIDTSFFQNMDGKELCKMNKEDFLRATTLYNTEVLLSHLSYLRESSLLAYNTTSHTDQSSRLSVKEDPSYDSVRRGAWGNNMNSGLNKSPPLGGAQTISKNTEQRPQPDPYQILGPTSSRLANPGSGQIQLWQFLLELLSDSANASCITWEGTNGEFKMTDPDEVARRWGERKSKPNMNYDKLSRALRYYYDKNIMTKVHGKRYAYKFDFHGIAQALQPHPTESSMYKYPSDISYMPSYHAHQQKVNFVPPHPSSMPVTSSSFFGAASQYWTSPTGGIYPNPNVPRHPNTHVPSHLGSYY
T1 sequence (Q01844 1-656): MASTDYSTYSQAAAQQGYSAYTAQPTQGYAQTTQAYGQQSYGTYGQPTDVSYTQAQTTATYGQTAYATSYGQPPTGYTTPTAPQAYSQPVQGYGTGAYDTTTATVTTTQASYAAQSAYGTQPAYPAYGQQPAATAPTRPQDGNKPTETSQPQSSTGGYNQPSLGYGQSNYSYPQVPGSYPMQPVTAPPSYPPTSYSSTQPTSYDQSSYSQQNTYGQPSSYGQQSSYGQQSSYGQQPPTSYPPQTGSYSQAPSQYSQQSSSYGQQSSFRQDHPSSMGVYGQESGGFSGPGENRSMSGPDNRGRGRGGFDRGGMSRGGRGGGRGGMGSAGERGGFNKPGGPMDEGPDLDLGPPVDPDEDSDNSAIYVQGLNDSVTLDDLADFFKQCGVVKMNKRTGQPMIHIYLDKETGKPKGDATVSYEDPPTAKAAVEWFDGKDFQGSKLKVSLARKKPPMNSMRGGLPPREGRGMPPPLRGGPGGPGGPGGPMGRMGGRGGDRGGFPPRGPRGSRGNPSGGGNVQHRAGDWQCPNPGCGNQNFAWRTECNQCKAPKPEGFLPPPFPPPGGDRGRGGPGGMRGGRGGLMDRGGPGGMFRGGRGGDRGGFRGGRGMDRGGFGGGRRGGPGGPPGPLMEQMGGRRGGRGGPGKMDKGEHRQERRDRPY
Nature of the data set: Surface plasmon resonance (Biacore) binding to EWS-FLI1. To be noted: read-out: KD. How it is done:
Antp is conjugated to the amino terminal of all peptides used in these studies. Recombinant EWS-FLI1 (MW 55 kDa) was covalently linked to a CM5 chip at a density of 1200 RU, and E9RP (MW 4 kDa) was evaluated for binding. The E9RP analyte concentrations ranged from 0.03-30 μM, and all are shown in duplicate. E9RP bound to EWS-FLI1 with a KD of 4.0 μM.
An assay that will identify whether a peptide can disrupt RHA from interacting with EWS-FLI1 was developed. The Biacore device is a biosensor that utilizes surface plasmon resonance (SPR) to measure the strength of molecular interactions. SPR is the sensitive measurement of […] light based upon alterations of surface characteristics that change with molecules binding to a surface. The Biacore device combines SPR with a microfluidic system.
The KD of E9RP binding to EWS-FLI1 was calculated to be 4.0 μM (FIG. 4).
A surface plasmon resonance assay using the Biacore T100 was established with EWS-FLI1, prepared in our laboratory as previously published (Uren, A., Tcherkasskaya, O. & Toretsky, J. A. Recombinant EWS-FLI1 oncoprotein activates transcription. Biochemistry 43, 13579-13589 (2004)). DNA oligonucleotides were used to quality control the proper conformation of EWS-FLI1 on the surface of a CM5 chip. Small molecules obtained from the Developmental Therapeutics Program of the National Cancer Institute, NIH (http://dtp.nci.nih.gov/branches/dscb/repo_open.html) were prioritized based upon their molecular weight and solubility. An initial screening of molecules was performed at 1 or 10 μM compound, based on solubility. We used a model that compares the actual binding maximum (actual RU) with the theoretical binding maximum (RUtheor). […] Hits (RUactual to RUtheor of 0.7-2.0) were then reviewed by a team of medicinal chemists and those with structural potentials were selected for further study. Selected molecules were tested in vitro in a solution coimmunoprecipitation assay using recombinant EWS-FLI1 and GST-RHA (647-1075).
Background: In SPR one partner is held on a chip, and binding of the other changes the refractive index at the surface.

A further data set relates to TC32 cells. Nature of the data set: Monolayer cell growth (MTT or WST), TC32. It counts as cell-based. To be noted: TC32 monolayer, 10 μM. How it is done: (§1) In FIG. 13A, recombinant EWS-FLI1 was treated with NSC635437 for 30 minutes. GST-RHA (630-1020) was added and the complexes were then precipitated with antibody to EWS-FLI1 and Protein G beads. Resolved complexes showing the immunoprecipitated complex control without compound are in lanes 3 (0.1% DMSO) and 5 (0.01% DMSO). […] ESFT TC32 (◯) and neuroblastoma SK-N-AS (▪) were grown for 72 hours in the continuous presence of NSC635437. Cells were incubated in MTT reagent for 4 hours and the dried precipitate was dissolved isopropanol and the absorbance read at 570 nm. Each cell line was standardized to the growth of the DMSO control.
(§2) FIG. 30 provides data to show E9R peptide prevents EWS-FLI1 binding to RHA with specific detrimental effects upon ESFT growth and transformation. […] Scale bar equals 20 μm. […] Only expression of EGFP-E9R in TC71 reduced anchorage independent growth. […] Scale bar equals 20 μm.
FIG. 33 provides data showing YK-4-279 is potent and specific inhibitor of ESFT. […] Cell number was measured by MTT or WST reduction after seven days in culture. […] FIG. 33D cell lines expressing EWS-FLI1 compared to non-EWS-FLI1 malignant cell lines following 3 days in culture to establish the IC50 using WST assay. […] Graph plots level of fluorescence in treated divided by untreated lysate. […] Scale bar equals 200 μm.

The test system of data set [1] is neuroblastoma SKNAS cells. Nature of the data set: Monolayer cell growth, neuroblastoma. It counts as cell-based. Conditions: SKNAS monolayer.
Source text: FIGS. 8A-E show E9RP inhibits ESFT cell growth. In FIGS. 8A and 8B, E9RP is the peptide region of RHA (SEQ ID NO:29) fused to the Penetratin peptide (from the Antennapedia homeodomain; SEQ ID NO:34) and contains amino-terminal fluorescein (FITC). […] Neither lipids nor electricity were used for transduction of peptides into cells. Confocal microscopy identified peptide throughout cells with nuclear uptake. Nuclear uptake was confirmed by DAPI staining. […] Cell lines were placed in 96-well plates with either vehicle alone (●), or E9RP (10 μM) on days 0, 3 and 5 (▴). No lipid or other transfection method was utilized. This represents two experiments with similar results. FIG. 8D depicts dose response of ESFT 1 to either wild-type or single amino-acid mutant peptides. (▪) wild-type E9RP, (E9R (SEQ ID NO:29) fused to the Penetratin peptide (SEQ ID NO:34)), (▾)(E9RP (P2A peptide (SEQ ID NO:30) fused to the Penetratin peptide (SEQ ID NO:34)), (▴)E9RP (D5A peptide (SEQ ID NO:31) fused to the Penetratin peptide (SEQ ID NO:34)). Growth normalized to treating cells with the 16 aa Antp sequence alone (SEQ ID NO:34). FIG. 8E is a comparison of wild-type versus mutant peptides in ESFT and NB cells.
as §1, §2

The next data set concerns ESFT cells TC71. Briefly: Xenografts of TC71 cells transfected with E9R expression plasmids. To be noted: mutated control peptide vs wild-type. It counts as in vivo, mice. How it is done: ESFT cells TC71 were transfected with pGE9R (wild-type sequence peptide (SEQ ID NO: 29)) or pGE9R-D5A (control, mutated peptide; D5A (SEQ ID NO: 31)). In FIG. 10A, fluorescent micrographs of transfected cells after 4 days in culture are presented. […] Bar equals 300 microns. In FIG. 10B, each group contains six mice. Mice legs were measured every 2-3 days. Tumors appeared in 2 weeks. The experiment was terminated after 26 days when the largest tumor caused the mouse to limp. Tumor volumes were calculated according to (D×d2/6)×π formula, where large diameter of tumor mass is D and small diameter is d. 2-way ANOVA analysis, followed by Bonferroni correction for multiple variables, the difference in the two growth curves was highly significant, p=0.016.
The ability of the E9R peptide sequence to prevent ESFT tumorigenesis in a pilot murine xenograft experiment was determined. As a control peptide, the same mutation that prevented wild-type RHA from binding to EWS-FLI1 (D827A, noted in the 10-mer peptide as E9R-D5A) was created. ESFT cells were transfected with either pGE9R or pGE9R-D5A by electroporation. A transfection efficiency of greater than 80% using fluorescent microscopy (FIG. 10A) was observed. […] Every two to three days, each animal's thigh was measured in three dimensions, and tumor volumes were calculated. […]

Take `O=C(CC1(O)C(=O)N(Cc2ccccc2)c2c(Cl)ccc(Cl)c21)c1ccc(Cl)cc1` (centres unmarked) [YK-4-276, 1-Benzyl-4,7-dichloro-3-[2-(4-chlorophenyl-2-oxoethyl)]-3-hydroxyl-1,3-dihydroindol-2-one]: the melting point fell in the range of 154 to 156 °C. The Kd at recombinant EWS-FLI1 (FIG. 24 experiment) stood at 10.2 µM.
`O=C(CC1(O)C(=O)Nc2c(Cl)ccc(Cl)c21)c1ccc(O)cc1` (centres unmarked) [YK-4-289, 4,7-Dichloro-3-hydroxyl-3-[2-(4-hydroxyphenyl-2-oxoethyl)]-1,3-dihydroindol-2-one] had a melting point of 240 to 242 °C. Besides, the Kd at recombinant EWS-FLI1 (FIG. 23 experiment) amounted to 6.82 µM. In addition, the Kd on recombinant EWS-FLI1 (FIG. 24 experiment) stood at 9.3 µM.
`O=C(CC1(O)C(=O)Nc2c(Cl)ccc(Cl)c21)c1ccccc1` (centres unmarked) [YK-4-285, 4,7-Dichloro-3-hydroxyl-3-(2-oxo2-phenylethyl)-1,3-dihydroindol-2-one]: the melting point is 198 to 200 °C.
With `Cc1ccc(C(=O)CC2(O)C(=O)Nc3c(Cl)ccc(Cl)c32)cc1` (centres unmarked) [YK-4-280, 4,7-Dichloro-3-hydroxyl-3-(2-oxo-2-p-tolylethyl)-1,3-dihydroindol-2-one], the melting point was 189 to 192 °C.
Turning to “[FITC]-RQIKIWFQNRRMKWKKPPPLAAVIEA ({FITC}-RQIKIWFQNRRMKWKKPPPLAAVIEA) [E9R(D5A), Antennapedia-E9R-D5A, mutated control peptide, reference compound]”, in the data set on TC32 cells, the “ESFT cell growth with fluorescein conjugated peptides” value is “neither the D5A mutated control nor antennapedia peptides alone reduced ESFT cell growth”. Besides, the “growth of neuroblastoma cells with fluorescein conjugated peptides” value in data set [1] is reported as “slight increase”.
The compound `Nc1ccc(C(=O)CC2(O)C(=O)Nc3c(Cl)ccc(Cl)c32)cc1` (centres unmarked) [YK-4-284, 3-[2-(4-Aminophenyl-2-oxoethyl)]-4,7-dichloro-3-hydroxyl 1,3-dihydroindol-2-one] displayed a melting point of 240 to 243 °C.
As for “PPPLAAVIEA [E9R-D5A, control, mutated peptide D5A, expressed from pGE9R-D5A, reference compound]”, in the data set on ESFT cells TC71, the “tumor take-rate and rate of growth” value is listed as “greater”.
